Laboratory results taken from patent publication US10596268B2, “Conjugate of dezocine and polyethylene glycol” (JenKem Technology Co., Ltd. (Beijing), priority 2016, dated 2020).

What was measured:
[1] = Pharmacokinetic experiment: drug concentration in brain tissue of SD rats after oral administration (LC-MS/MS); details: 10 mg/kg; for AUClast (Brain) / Cmax (Brain) / AUClast Ratio (Brain/Plasma) / t1/2 (Brain) / tmax (Brain): SD rats, oral; for AUClast (Brain) / Cmax (Brain) / t1/2 (Brain) / tmax (Brain): brain tissue; for Kp / Tmax / half-life: male, SD, rat, po; for Kp: brain and plasma; for Tmax / half-life: brain
[2] = Pharmacokinetic experiment: drug concentration in plasma of SD rats after oral administration (LC-MS/MS); details: 10 mg/kg; for AUC(0-t) / Cmax / Tmax / half-life: male, SD, rat, po; for AUClast (Plasma) / Cmax (Plasma) / t1/2 (Plasma) / tmax (Plasma): SD rats, oral
[3] = in vivo; cited from earlier work
CFA rat model = test: Pharmacodynamic experiment: Frey's hair pain threshold in CFA rat model; format: in vivo, SD rats; details: oral 10 mg/kg; for Pain threshold value, Frey's hair: mean ± standard deviation
[4] = 0 h (basal value before administration)

| SMILES | AUClast (Brain) [1] [ng·h/g] | Cmax (Brain) [1] [ng/g] | Kp [1] | Tmax [1] [h] | half-life [1] [h] | AUC(0-t) [2] [ng·h/mL] | Cmax [2] [ng/mL] | Tmax [2] [h] | half-life [2] [h] | Pain threshold value, Frey's hair (CFA rat model; [4]) [g] | Pain threshold value, Frey's hair (CFA rat model; 0.25 h after administration) [g] | Pain threshold value, Frey's hair (CFA rat model; 2 h after administration) [g] | Pain threshold value, Frey's hair (CFA rat model; 6 h after administration) [g] | Pain threshold value, Frey's hair (CFA rat model; 24 h after administration) [g] | AUClast Ratio (Brain/Plasma) [1] | t1/2 (Brain) [1] [h] | tmax (Brain) [1] [h] | AUClast (Plasma) [2] [ng·h/mL] | Cmax (Plasma) [2] [ng/mL] | t1/2 (Plasma) [2] [h] | further results |
| --- | --- | --- | --- | --- | --- | --- | --- | --- | --- | --- | --- | --- | --- | --- | --- | --- | --- | --- | --- | --- | --- |
| C[C@@]12CCCCC[C@@H](Cc3ccc(O)cc31)[C@@H]2N [JK-2215D00, 13-amino-5,6,7,8,9,10,11,12-octahydro-5-methyl-5,11-methylenebenzocyclodecen-3-ol, reference compound] | 267 | 221 | 1.15 | 1 | 2.05 | 232 | 193 | 1 | 1.41 | 7.7 ± 1.1 | 9.8 ± 1.0 | 10.2 ± 2.7 | 9.2 ± 1.4 | 7.5 ± 1.8 |  |  |  |  |  |  | analgesic effect relative to pethidine [3]: 5-9 times; average peak concentration at which adverse reactions occur [3]: 45 µg/L; blood concentration producing a potent analgesic effect [3]: 5 to 9 µg/L; analgesic effect at 6 h after administration (CFA rat model; 6 h): not significant |
| COCCOCCOCCOCCOCCOCCOc1ccc2c(c1)C1(C)CCCCCC(C2)C1N (stereo not drawn) [JK-2215D01, Monomethoxyhexaethylene Glycol-Dezocine Conjugate] | 925 | 147 |  |  |  |  |  |  |  | 7.6 ± 0.8 | 8.7 ± 1.3 | 9.1 ± 1.3 | 8.7 ± 1.1 | 7.8 ± 1.4 | 0.734 | 17.6 | 8 | 1366 | 345 | 4.33 | tmax (Plasma) [2]: 3 h |
| COCCOCCOCCOCCOCCOCCN[C@H]1[C@H]2CCCCC[C@]1(C)c1cc(O)ccc1C2 [JK-2215D02, Monomethoxyhexaethylene Glycol-Dezocine Conjugate] | 993 | 166 |  |  |  |  |  |  |  | 7.8 ± 0.8 | 10.3 ± 1.2 | 12.1 ± 1.5 | 13.2 ± 0.9 | 10.7 ± 1.5 | 0.757 | 18.7 | 8 | 1312 | 339 | 4.45 | tmax (Plasma) [2]: 3 h |
| C[C@@]12CCCCC[C@@H](Cc3ccc(O)cc31)[C@@H]2NCCOCCOCCOCCOCCN[C@H]1[C@H]2CCCCC[C@]1(C)c1cc(O)ccc1C2 [JK-2215D03, Pentaethylene Glycol-Dezocine Conjugate] | 813 | 129 | 0.659 | 7 | 19.7 | 1230 | 344 | 2 | 4.12 | 7.7 ± 1.4 | 9.2 ± 1.4 | 11.2 ± 2.0 | 11.4 ± 0.9 | 10.6 ± 2.0 |  |  |  |  |  |  |  |
